Measured values published in US10336762B2 (priority 2017, dated 2019).
pEC50, pIC50: −log10 of the molar value. Where two headings read alike, the source gives them in different places.

Key:
IRAK4 enzyme = IRAK4 enzyme (Homo sapiens (Human), UniProt Q9NWZ3); assay: biochemical; format: biochemical; conditions: IRAK4 enzyme, 500 μM ATP
TNFα = assay: cells; format: cell-based, human; conditions: LPS-stimulated human monocytes, read-out: EC50 TNF
[1] = Homo sapiens, Monocyte, TNFα content
[2] = Homo sapiens, Monocyte, TNFα by TR-FRET

Sequence of IRAK4 enzyme (Q9NWZ3 whole entry): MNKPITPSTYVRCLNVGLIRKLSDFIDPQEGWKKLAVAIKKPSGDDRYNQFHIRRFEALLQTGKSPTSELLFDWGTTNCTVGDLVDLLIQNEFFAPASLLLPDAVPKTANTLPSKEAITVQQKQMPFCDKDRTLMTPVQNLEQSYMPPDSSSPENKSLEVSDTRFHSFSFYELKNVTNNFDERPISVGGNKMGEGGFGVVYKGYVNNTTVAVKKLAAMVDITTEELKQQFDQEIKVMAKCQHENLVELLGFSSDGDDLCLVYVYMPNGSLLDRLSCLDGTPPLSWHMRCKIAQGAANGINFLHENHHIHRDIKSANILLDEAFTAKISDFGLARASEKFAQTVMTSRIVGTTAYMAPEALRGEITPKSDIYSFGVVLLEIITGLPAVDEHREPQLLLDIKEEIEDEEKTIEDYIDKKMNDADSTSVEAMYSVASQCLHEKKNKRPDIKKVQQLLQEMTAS

SMILES	pIC50 (IRAK4 enzyme; TR-FRET (HTRF))	pEC50 (TNFα; [1])	pEC50 (TNFα; TNFα content)	pIC50 (IRAK4 enzyme; TR-FRET)	pEC50 (TNFα; [2])
COC1CN(C(=O)CNC(=O)c2cnc(-c3ccc4cc(C#N)cnn34)cc2NC23CCC(O)(CC2)CC3)C1 [Example 791, 6-(3-cyanopyrrolo[1,2-b]pyridazin-7-yl)-4-((4-hydroxybicyclo[2.2.2]octan-1-yl)amino)-N-(2-(3-methoxyazetidin-1-yl)-2-oxoethyl)nicotinamide]	9.00	7.35			
COC(=O)NCC1(O)CC(Nc2cc(-c3ccc4cc(C#N)cnn34)ncc2C(=O)NC[C@@H](F)C(C)(C)O)C1 (single isomer, unassigned) [Example 759]	8.52		< 5.00		
CC(C)(O)[C@H](F)CNC(=O)c1cnc(-c2ccc3cc(C#N)cnn23)cc1N[C@H]1CCC[C@@H](N2CCOCC2)C1 [Example 524, 6-(3-cyanopyrrolo[1,2-b]pyridazin-7-yl)-N-((R)-2-fluoro-3-hydroxy-3-methylbutyl)-4-(((1S,3R)-3-morpholinocyclohexyl)amino)nicotinamide]	9.00	7.01			
CC(=O)NC12CCC(NC(=O)c3cnc(-c4ccc5cc(C#N)cnn45)cc3NC(C)C)(CC1)CC2 [Example 131, N-(4-acetamido-bicyclo[2.2.2]octan-1-yl)-6-(3-cyanopyrrolo[1,2-b]pyridazin-7-yl)-4-(isopropylamino) nicotinamide]		6.81		9.00	
CC(C)(O)[C@H](F)CNC(=O)c1cnc(-c2ccc3cc(C#N)cnn23)cc1N[C@H]1CC[C@H](c2ccon2)CC1 [Example 777, 6-(3-cyanopyrrolo[1,2-b]pyridazin-7-yl)-N-((R)-2-fluoro-3-hydroxy-3-methylbutyl)-4-(((1r,4R)-4-(isoxazol-3-yl)cyclohexyl)amino)nicotinamide]	> 9.00	7.82			
COC(=O)NC[C@H]1C[C@H](Nc2cc(-c3ccc4cc(C#N)cnn34)ncc2C(=O)NCCC(C)(C)NC(=O)OC(C)(C)C)C1 [Example 816, methyl (((1r,3r)-3-((5-((3-((tert-butoxy-carbonyl)amino)-3-methylbutyl)carbamoyl)-2-(3-cyanopyrrolo[1,2-b]pyridazin-7-yl)pyridin-4-yl)amino)cyclobutyl)methyl)carbamate]				> 9.00	7.39
CC(C)Nc1cc(-c2ccc3cc(C#N)cnn23)ncc1C(=O)NCCS(C)(=O)=O [Example 92, 6-(3-cyanopyrrolo[1,2-b]pyridazin-7-yl)-4-(isopropylamino)-N-(2-(methylsulfonyl)ethyl) nicotinamide]		7.10		8.70	
CC(=O)N1CC[C@H]1CNc1cc(-c2ccc3cc(C#N)cnn23)ncc1C(=O)NC[C@@H](F)C(C)(C)O [Example 889, 4-((((S)-1-acetylazetidin-2-yl)methyl)amino)-6-(3-cyanopyrrolo[1,2-b]pyridazin-7-yl)-N-((R)-2-fluoro-3-hydroxy-3-methylbutyl)nicotinamide]				8.05	6.36
CC(C)Nc1cc(-c2ccc3cc(C#N)cnn23)ncc1C(=O)NC12CC(C#N)(C1)C2 [Example 380, N-(3-cyanobicyclo[1.1.1]pentan-1-yl)-6-(3-cyano-pyrrolo[1,2-b]pyridazin-7-yl)-4-(isopropylamino) nicotinamide]		6.11		7.82	
CC(C)(O)[C@H](F)CNC(=O)c1cnc(-c2ccc3cc(C#N)cnn23)cc1Nc1ccc(C(N)=O)nc1 [Example 601, (R)-5-((2-(3-cyano-pyrrolo[1,2-b]pyridazin-7-yl)-5-((2-fluoro-3-hydroxy-3-methylbutyl)carbamoyl)pyridin-4-yl)amino) picolinamide]	> 9.00	7.19			
N#Cc1cnn2c(-c3cc(NC45CCC(O)(CC4)CC5)c(C(=O)N[C@@H]4CCCNC4=O)cn3)ccc2c1 [Example 958, (R)-6-(3-cyanopyrrolo[1,2-b]pyridazin-7-yl)-4-((4-hydroxybicyclo[2.2.2]octan-1-yl)amino)-N-(2-oxo-piperidin-3-yl)nicotinamide]				9.00	6.66
CC(C)(O)[C@H](F)CNC(=O)c1cnc(-c2ccc3cc(C#N)cnn23)cc1Nc1ccc(OC2COC2)cc1 [Example 567, (R)-6-(3-cyanopyrrolo[1,2-b]pyridazin-7-yl)-N-(2-fluoro-3-hydroxy-3-methylbutyl)-4-((4-(oxetan-3-yloxy)phenyl)amino)nicotinamide]	> 9.00	7.30			
COC(=O)NCc1ccc(Nc2cc(-c3ccc4cc(C#N)cnn34)ncc2C(=O)NC[C@@H](F)C(C)(C)O)cc1F [Example 834, (R)-methyl (4-((2-(3-cyano-pyrrolo[1,2-b]pyridazin-7-yl)-5-((2-fluoro-3-hydroxy-3-methylbutyl)carbamoyl)pyridin-4-yl)amino)-2-fluorobenzyl)carbamate]				> 9.00	7.64
CCOC(=O)CCNC(=O)c1cnc(-c2ccc3cc(C#N)cnn23)cc1NC12CCC(O)(CC1)CC2 [Example 801, ethyl 3-(6-(3-cyano-pyrrolo[1,2-b]pyridazin-7-yl)-4-((4-hydroxy-bicyclo[2.2.2]octan-1-yl)amino)nicotinamido) propanoate]				9.00	7.24
CC(=O)NCc1ccc(Nc2cc(-c3ccc4cc(C#N)cnn34)ncc2C(=O)NC[C@@H](F)C(C)(C)O)cc1 [Example 241, (R)-4-((4-(acetamidomethyl)phenyl)amino)-6-(3-cyanopyrrolo[1,2-b]pyridazin-7-yl)-N-(2-fluoro-3-hydroxy-3-methylbutyl)nicotinamide]		7.80		> 9.00	
CNC(=O)c1cnc(-c2ccc3cc(C#N)cnn23)cc1N[C@H]1CC[C@H](NC(C)=O)CC1 [Example 276, 4-(((1r,4r)-4-acetamidocyclohexyl)amino)-6-(3-cyano-pyrrolo[1,2-b]pyridazin-7-yl)-N-methylnicotinamide]		6.84		8.52	
CNC(=O)[C@H]1CC[C@H](NC(=O)c2cnc(-c3ccc4cc(C#N)cnn34)cc2NC23CC(NC(C)=O)(C2)C3)CC1 [Example 479, 4-((3-acetamidobicyclo[1.1.1]pentan-1-yl)amino)-6-(3-cyanopyrrolo[1,2-b]pyridazin-7-yl)-N-((1r,4r)-4-(methylcarbamoyl)cyclohexyl)nicotinamide]	> 9.00	7.15			
CC(C)(O)[C@H](F)CNC(=O)c1cnc(-c2ccc3cc(C#N)cnn23)cc1NC1CCC2(CCC(=O)N2)CC1 (stereo partly drawn) [Example 265, 6-(3-cyanopyrrolo[1,2-b]pyridazin-7-yl)-N-((R)-2-fluoro-3-hydroxy-3-methylbutyl)-4-(((5S,8s)-2-oxo-1-azaspiro[4.5]decan-8-yl)amino) nicotinamide]		6.16		8.70	
COC(=O)N[C@H]1C[C@@H](CNC(=O)c2cnc(-c3ccc4cc(C#N)cnn34)cc2NC23CCC(O)(CC2)CC3)C1 [Example 731, methyl ((1s,3s)-3-((6-(3-cyanopyrrolo[1,2-b]pyridazin-7-yl)-4-((4-hydroxybicyclo[2.2.2]octan-1-yl)amino)nicotin-amido)methyl)cyclobutyl) carbamate]	> 9.00	7.23			
CC(=O)Nc1ccc(Nc2cc(-c3ccc4cc(C#N)cnn34)ncc2C(=O)NC[C@@H](F)C(C)(C)O)cn1 [Example 662, (R)-4-((6-acetamido-pyridin-3-yl)amino)-6-(3-cyanopyrrolo[1,2-b]pyridazin-7-yl)-N-(2-fluoro-3-hydroxy-3-methylbutyl)nicotinamide]	> 9.00	7.92			
